Laboratory results published in PMC4732513, “Efficient one-pot synthesis, molecular docking and in silico ADME prediction of bis-(4-hydroxycoumarin-3-yl) methane derivatives as antileishmanial agents” (EXCLI Journal, 2015).
In brackets after ≈: the same amount, converted by molar mass.

Each molecule was assayed on L. donovani promastigotes (NHOM/IN/80/DD8) (assay: In vitro antileishmanial activity (modified MTT assay)). Details: Figure 3.
Assay type: cell-based, Leishmania donovani
Procedure: The assay for in vitro antileishmanial activity on culture of L. donovani promastigotes (NHOM/IN/80/DD8) was carried out in 96-well tissue culture plates. The promastigotes culture was maintained at 22 ^οC in modified RPMI 1640 pH 7.4 (without phenol red) with 10 % FCS medium. Drug dilutions were prepared in DMSO and appropriate concentration of each drug was used in triplicate. Plates were incubated at 22 °C for 72 h and evaluated using modified MTT assay, where the conversion of 3-(4,5-dimethylthiazol-2-yl)-2,5-diphenyltetrazolium bromide (MTT) to formazan by mitochondrial enzymes served as an indicator of cell viability and the amount of formazan produced was directly proportional to the number of metabolically active cells. Accordingly, absorbance at 492 nm represented the number of live cells. The concentration that decreased cell growth by 50 % (IC50) was determined by graphic interpolation. Pentamidine and sodium stibogluconate were used as standard drugs (Dutta et al., 2005[11]).
The assay for in vitro antileishmanial activity was carried out on cultures of L. donovani promastigotes. The concentration that decreased cell growth by 50 % (IC50) was determined by graphic interpolation and data obtained depicted in Table 3(Tab. 3).

Row | Compound | Effect on L. donovani promastigotes (viability, morphology)
1 | CN(C)c1ccc(C(c2c(O)c3ccccc3oc2=O)c2c(O)c3ccccc3oc2=O)cc1 [3l, 3,3'-((4-(Dimethylamino)phenyl)methylene)bis(4-hydroxy-2H-chromen-2-one)] | organisms lost its viability as seen by irregular shape morphology

Same assay, conditions: L. donovani promastigotes, 72 h at 22 °C, modified MTT, graphic interpolation

Row | Compound | IC50 (concentration that decreased cell growth by 50 %) [µg/mL]
2 | COc1ccc(C(c2c(O)c3ccccc3oc2=O)c2c(O)c3ccccc3oc2=O)c(OC)c1 [3g] | 157.5 (≈ 333 µM)
3 | O.O.O.O.O.O.O.O.O.O=C([O-])[C@@H]1[O][Sb](=[O])([O][Sb]2(=[O])[O][C@H]([C@H](O)CO)[C@H](O)[C@H](C(=O)[O-])[O]2)[O][C@H]([C@H](O)CO)[C@@H]1O.[Na+].[Na+].[Na+] (stereo partly drawn) [Sodium stibogluconate, sodium stibogluconate, reference compound] | 490

Same assay, conditions: Leishmania donovani, 72 h, read-out: IC50 (concentration that decreased cell growth by 50 %)

Row | Compound | IC50 [µg/mL]
4 | O=c1oc2ccccc2c(O)c1C(c1ccccc1)c1c(O)c2ccccc2oc1=O [3a, 3,3'-(Phenylmethylene)bis(4-hydroxy-2H-chromen-2-one)] | 155 (≈ 376 µM)
5 | COc1ccc(OC)c(C(c2c(O)c3ccccc3oc2=O)c2c(O)c3ccccc3oc2=O)c1 [3h, 3,3'-((2,5-Dimethoxyphenyl)methylene)bis(4-hydroxy-2H-chromen-2-one)] | 198 (≈ 418 µM)
6 | O=c1oc2ccccc2c(O)c1C(c1c(Cl)cccc1Cl)c1c(O)c2ccccc2oc1=O [3c, 3,3'-((2,6-Dichlorophenyl)methylene)bis(4-hydroxy-2H-chromen-2-one)] | 320 (≈ 665 µM)
7 | COc1ccc(C(c2c(O)c3ccccc3oc2=O)c2c(O)c3ccccc3oc2=O)cc1OC [3f, 3,3'-((3,4-Dimethoxyphenyl)methylene)-bis(4-hydroxy-2H-chromen-2-one)] | 275 (≈ 582 µM)
8 | O=c1oc2ccccc2c(O)c1C(c1ccc(F)cc1)c1c(O)c2ccccc2oc1=O [3d, 3,3'-((4-Fluorophenyl)methylene)bis(4-hydroxy-2H-chromen-2-one)] | 295 (≈ 685 µM)
9 | COc1ccc(C(c2c(O)c3ccccc3oc2=O)c2c(O)c3ccccc3oc2=O)cc1 [3e, 3,3'-((4-Methoxyphenyl)methylene)bis(4-hydroxy-2H-chromen-2-one)] | 218 (≈ 492 µM)
10 | COc1cc(C(c2c(O)c3ccccc3oc2=O)c2c(O)c3ccccc3oc2=O)cc(OC)c1OC [3i, 3,3'-((3,4,5-Trimethoxyphenyl)methylene)bis(4-hydroxy-2H-chromen-2-one)] | 262 (≈ 522 µM)
11 | COc1cc(C(c2c(O)c3ccccc3oc2=O)c2c(O)c3ccccc3oc2=O)ccc1O [3j, 3,3'-((4-Hydroxy-3-methoxyphenyl)methylene)bis(4-hydroxy-2H-chromen-2-one)] | 198 (≈ 431 µM)
12 | N#Cc1ccc(C(c2c(O)c3ccccc3oc2=O)c2c(O)c3ccccc3oc2=O)cc1 [3k, 3,3'-((4-Cyanophenyl)methylene)bis(4-hydroxy-2H-chromen-2-one)] | 225 (≈ 514 µM)
13 | CN(C)c1ccc(C(c2c(O)c3ccccc3oc2=O)c2c(O)c3ccccc3oc2=O)cc1 [3l, 3,3'-((4-(Dimethylamino)phenyl)methylene)bis(4-hydroxy-2H-chromen-2-one)] | 150 (≈ 329 µM)
14 | O=c1oc2ccccc2c(O)c1C(c1ccc(Cl)cc1)c1c(O)c2ccccc2oc1=O [3b, 3,3'-((4-Chlorophenyl)methylene)bis(4-hydroxy-2H-chromen-2-one)] | 312 (≈ 699 µM)

Same assay, conditions: Leishmania donovani; L. donovani promastigotes, 72 h at 22 °C, modified MTT, graphic interpolation; read-out: IC50 (concentration that decreased cell growth by 50 %)

Row | Compound | IC50 [µg/mL]
15 | N=C(N)c1ccc(OCCCCCOc2ccc(C(=N)N)cc2)cc1 [Pentamidine, pentamidine, reference compound] | 5.5 (≈ 16.2 µM)
